Test results: PMC6753678, “Fueling Open Innovation for Malaria Transmission-Blocking Drugs: Hundreds of Molecules Targeting Early Parasite Mosquito Stages” (Frontiers in Microbiology, 2019)
pIC50: −log10 of the molar value.

Experiments:
[1] = test system: P. falciparum late stage (stages IV-V) gametocytes; assay: P. falciparum late stage gametocyte ATP depletion assay (Pf GC-ATP); conditions: 1: YES; 0: NO; >10-fold selectivity over cytotoxicity
[2] = test system: HepG2 cells; assay: HepG2 cytotoxicity assay; conditions: HepG2 cytotoxicity unified across screens; >25 set to 25.00
Procedure, shortened: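 Here viability after a 48 h compound incubation (37°C, humidified 5% CO2) is measured by fluorescence and expressed as percent inhibition, with doxorubicin at 50 μM and DMSO as the bounding controls.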

[3] = test system: P. falciparum late stage (stages IV-V) gametocytes; set-up: method as in Almela et al 2016; conditions: P. falciparum late stage gametocyte ATP assay, TCAMS screen; ref Almela et al 2016; read-out: Pf GCT ATP IC50; cited from earlier work
[4] = test system: P. berghei ookinete development; conditions: primary screen at 1 μM

| SMILES | Is compound selective in assay? Pf GC-ATP active? [1] | Unified cytotox [2] [µM] | pIC50 [3] | % inhibition, Replicate A ([4]; replicate A) [%] | % inhibition, Replicate B ([4]; replicate B) [%] |
| --- | --- | --- | --- | --- | --- |
| O=C(NCCc1ccccc1)N(Cc1cccc(-c2ccc(CNC3CCCC3)cc2)c1)C1CCN(Cc2ccccc2)CC1.O=C(O)C(F)(F)F [TCMDC-140618] | 0 (0: NO) | 7.42 | 5.88 |  |  |
| CN(C)CCN(Cc1ccccc1-c1ccc(CNCCc2ccccc2)cc1)C(=O)NC1CCCCC1.O=C(O)C(F)(F)F [TCMDC-140626] | 1 (1: YES) | 6.40 | 6.46 |  |  |
| CC(C)CNCc1ccc(-c2cccc(CN(C(=O)NC3CCCCC3)C3CCN(Cc4ccccc4)CC3)c2)cc1.O=C(O)C(F)(F)F [TCMDC-140628] | 0 (0: NO) | 1.81 | 5.78 |  |  |
| CC(C)CNCc1cccc(-c2cccc(CN(CCCN3CCN(C)CC3)C(=O)NC3CCCCC3)c2)c1.O=C(O)C(F)(F)F [TCMDC-140633] | 0 (0: NO) | 16.75 | 5.75 |  |  |
| CN1CCC(N(Cc2ccc(-c3ccc(Cl)cc3)cc2)C(=O)Cn2c(CCc3cccc(F)c3F)cc(=O)c3ccccc32)CC1.O=C(O)C(O)C(O)C(=O)O [TCMDC-141357] | 0 (0: NO) | 6.70 | 5.46 | 22.22 | 55.97 |
| O=C(C1CC1c1ccccc1)N(Cc1ccc(-c2ccc(CNCCc3ccccc3)cc2)cc1)C1CCNCC1.O=C(O)C(F)(F)F (centres unmarked) [TCMDC-141443] | 1 (1: YES) | 6.70 | 6.41 |  |  |
| O=C(CC1CCCC1)N(Cc1ccc(-c2ccc(CNC3Cc4ccccc4C3)cc2)cc1)CC1CCCCN1.O=C(O)C(F)(F)F (centres unmarked) [TCMDC-141446] | 0 (0: NO) | 6.47 | 6.00 |  |  |
| CC(C)CC(=O)N(Cc1ccc(-c2ccc(CNC3Cc4ccccc4C3)cc2)cc1)C1CCNCC1.O=C(O)C(F)(F)F [TCMDC-141449] | 0 (0: NO) | 6.20 | 6.20 |  |  |
| O=C(COc1ccccc1)N(Cc1ccc(-c2ccc(CNC3Cc4ccccc4C3)cc2)cc1)C1CCNCC1.O=C(O)C(F)(F)F [TCMDC-141450] | 0 (0: NO) | 7.80 | 6.00 |  |  |
| CN1CCC(C(=O)N(Cc2ccc(-c3ccc(CNCCc4ccccc4)cn3)cc2)C2CCN(Cc3ccccc3)CC2)CC1.O=C(O)C(F)(F)F [TCMDC-141552] | 1 (1: YES) | 9.27 | 6.05 |  |  |
| CCN(CC)CCN(Cc1ccc(-c2ccc(C(F)(F)F)cc2)cc1)C(=O)c1ccc(-c2ccc(NC(=O)OC)cc2C)cc1 [TCMDC-141558] | 0 (0: NO) | 5.40 | 5.43 |  |  |
| CCN(CC)CCCNc1ncc2c(-c3ccc(NC(=O)Nc4cc(C(F)(F)F)ccc4F)cc3)nn(C)c2n1.O=C(O)C(F)(F)F [TCMDC-141583] | 0 (0: NO) | 9.50 | 5.46 |  |  |
| CCN(Cc1ccc(-c2ccc(C(F)(F)F)cc2)cc1)C(=O)Cn1c(SCc2cccc(F)c2F)cc(=O)c2cc(CN3CCCCC3)ccc21.Cl [TCMDC-141592] | 0 (0: NO) | 4.20 | 5.63 |  |  |
| CN(C)CCCNc1nccc(N(C)c2ccc(NC(=O)Nc3cc(C(F)(F)F)ccc3F)cc2)n1.O=C(O)C(F)(F)F [TCMDC-141633] | 1 (1: YES) | 17.30 | 6.00 |  |  |
| O=C(Nc1cccc(Oc2ccccc2)c1)N[C@H]1CCN(Cc2ccc(OCCCN3CCCCC3)cc2)C1 [TCMDC-141785] | 0 (0: NO) | 3.52 | 5.95 |  |  |
| Cc1ccc2nc(C)cc(N/N=C/c3ccc([N+](=O)[O-])cc3)c2c1 [TCMDC-142070] | 0 (0: NO) | 0.19 | 5.03 |  |  |
| COc1ccc2c(=NN=Cc3ccc(OC)c4ccccc34)cc(C)[nH]c2c1 [TCMDC-142218] | 1 (1: YES) | 7.86 | 6.11 |  |  |
| Nc1cc(C=Cc2ccc([N+](=O)[O-])o2)nc2ccccc12 [TCMDC-142295] | 1 (1: YES) | 11.70 | 6.70 |  |  |
| Nc1cc(/C=C/c2ccc([N+](=O)[O-])s2)nc2ccccc12 [TCMDC-142296] | 1 (1: YES) | 7.60 | 6.22 |  |  |
